Reference: DBAASP
≈ marks a conversion by molar mass, not a printed value. Each block holds one compound with its values, some of them ahead of it.

Assays:
Test in all cases: ≥ marks a high value that may be exact or a test limit, other limits are often not marked, values filed in µg/mL are converted to µM
Escherichia coli = test system: Escherichia coli
Listeria innocua = test system: Listeria innocua
Micrococcus luteus A270 = test system: Micrococcus luteus A270
[1] = test system: Bacillus subtilis ATCC 6633
[2] = test system: Candida albicans ATCC 10231
[3] = test system: Escherichia coli ATCC 25922
Escherichia coli D31 = test system: Escherichia coli D31
[4] = test system: Pseudomonas aeruginosa ATCC 15442
[5] = test system: Pseudomonas aeruginosa PAO1
[6] = test system: Staphylococcus aureus ATCC 25923
[7] = test system: Staphylococcus aureus ATCC 43300
Staphylococcus aureus MR = test system: Staphylococcus aureus MR
[8] = test system: Streptococcus mutans ATCC 25175
Acinetobacter baumannii = test system: Acinetobacter baumannii
Enterococcus faecium = test system: Enterococcus faecium
Klebsiella pneumoniae = test system: Klebsiella pneumoniae
Pseudomonas aeruginosa = test system: Pseudomonas aeruginosa
Streptococcus pneumoniae = test system: Streptococcus pneumoniae
Candida albicans = test system: Candida albicans
[9] = test system: Micrococcus luteus ATCC 9341
Salmonella typhimurium = test system: Salmonella typhimurium
Staphylococcus aureus = test system: Staphylococcus aureus
[10] = test system: Acinetobacter baumannii ATCC 19606
[11] = test system: Bacillus subtilis ATCC 6051
[12] = test system: Candida albicans ATCC 90028
[13] = test system: Cryptococcus neoformans ATCC 208821
[14] = test system: Klebsiella pneumoniae ATCC 13883
[15] = test system: Klebsiella pneumoniae ATCC 700603
[16] = test system: Klebsiella pneumoniae ATCC BAA-2146
[17] = test system: Pseudomonas aeruginosa ATCC 27853
[18] = test system: Escherichia coli DH5alpha
Staphylococcus xylosus = test system: Staphylococcus xylosus

SMILES: CC(C)[C@H](NC(=O)[C@@H]1CCCN1C(=O)[C@@H](NC(=O)[C@H](Cc1ccccc1)NC(=O)[C@H](CCC(=O)O)NC(=O)[C@H](CCCCN)NC(=O)CNC(=O)[C@H](Cc1ccccc1)NC(=O)[C@H](CC(N)=O)NC(=O)[C@H](CCCN=C(N)N)NC(=O)[C@H](C)N)[C@@H](C)O)C(=O)O [ARNFGKEFTPV]
MIC (Escherichia coli): 12 µM (≈ 15.2 µg/mL)
MIC (Listeria innocua): 6 µM (≈ 7.59 µg/mL)
MIC (Micrococcus luteus A270): 6 µM (≈ 7.59 µg/mL)

SMILES: CC[C@H](C)[C@H](NC(=O)[C@H](Cc1cnc[nH]1)NC(=O)[C@H](CCC(N)=O)NC(=O)[C@H](CC(C)C)NC(=O)[C@@H](N)Cc1ccccc1)C(=O)N[C@H](C(=O)NCC(=O)N[C@@H](C)C(=O)N[C@@H](CC(C)C)C(=O)NCC(=O)N[C@@H](CCCCN)C(=O)N[C@@H](CC(C)C)C(=O)N[C@@H](Cc1ccccc1)C(N)=O)[C@@H](C)CC [FLQHIIGALGKLF]
MIC [1]: 25 µM (≈ 36.4 µg/mL)
MIC [2]: 50 µM (≈ 72.8 µg/mL)
MIC [3]: 12.5 µM (≈ 18.2 µg/mL)
MIC (Escherichia coli D31): ≥ 50 µM
MIC [4]: ≥ 50 µM
MIC [5]: > 100 µM
MIC [6]: 1.6 µM (≈ 2.33 µg/mL)
MIC [7]: 6.2 µM (≈ 9.03 µg/mL)
MIC (Staphylococcus aureus MR): 6.2 µM (≈ 9.03 µg/mL)
MIC [8]: 6.2 µM (≈ 9.03 µg/mL)

SMILES: CC[C@H](C)[C@H](NC(=O)[C@H](Cc1cnc[nH]1)NC(=O)CNC(=O)CN)C(=O)N[C@@H](CCCN=C(N)N)C(=O)N[C@@H](CCCN=C(N)N)C(=O)N[C@H](C(=O)N[C@H](C(=O)N[C@@H](CCCN=C(N)N)C(=O)N[C@@H](CCCCN)C(=O)N[C@H](C(=O)N[C@H](C(=O)N[C@@H](Cc1cnc[nH]1)C(=O)N[C@H](C(=O)N[C@H](C(=O)N[C@@H](CCCCN)C(=O)N[C@@H](CCCCN)C(=O)NCC(=O)NCC(=O)N[C@@H](CS)C(N)=O)[C@@H](C)CC)[C@@H](C)CC)[C@@H](C)CC)[C@@H](C)CC)[C@@H](C)CC)[C@@H](C)CC [GGHIRRIIRKIIHIIKKGGC]
MIC (Acinetobacter baumannii): 10.7 µM (≈ 24.3 µg/mL)
MIC (Enterococcus faecium): 3.3 µM (≈ 7.48 µg/mL)
MIC [3]: 1.3 µM (≈ 2.95 µg/mL)
MIC (Klebsiella pneumoniae): 8 µM (≈ 18.1 µg/mL)
MIC (Pseudomonas aeruginosa): 4 µM (≈ 9.07 µg/mL)
MIC [7]: 1.5 µM (≈ 3.4 µg/mL)
MIC (Streptococcus pneumoniae): 4 µM (≈ 9.07 µg/mL)

SMILES: CC[C@H](C)[C@H](N)C(=O)N[C@@H](CC(C)C)C(=O)N1CCC[C@H]1C(=O)N[C@@H](Cc1c[nH]c2ccccc12)C(=O)N[C@@H](CCCCN)C(=O)N[C@@H](Cc1c[nH]c2ccccc12)C(=O)N1CCC[C@H]1C(=O)N[C@@H](Cc1c[nH]c2ccccc12)C(=O)N[C@@H](Cc1c[nH]c2ccccc12)C(=O)N1CCC[C@H]1C(=O)N[C@@H](C)C(=O)N[C@@H](CCCN=C(N)N)C(=O)N[C@@H](CCCN=C(N)N)C(N)=O [ILPWKWPWWPARR]
MIC (Candida albicans): 0.0045 µM (≈ 0.00806 µg/mL)
MIC (Escherichia coli): 2.79 µM (≈ 5 µg/mL)
MIC [9]: 1.6 µM (≈ 2.87 µg/mL)
MIC (Salmonella typhimurium): 2.79 µM (≈ 5 µg/mL)
MIC (Staphylococcus aureus): 44.6 µM (≈ 80 µg/mL)

SMILES: CC[C@H](C)[C@@H]1NC(=O)CNC(=O)[C@H](CCCN=C(N)N)NC(=O)[C@H](Cc2ccc(O)cc2)NC(=O)[C@@H]2CSSC[C@H](NC1=O)C(=O)N[C@@H](Cc1ccc(O)cc1)C(=O)N[C@@H](CCCN=C(N)N)C(=O)N[C@@H](CCCN=C(N)N)C(=O)N[C@H](C(=O)N[C@@H](CCCN=C(N)N)C(=O)O)CSSC[C@H](NC(=O)[C@H](C)NC(=O)[C@@H](N)CCCCN)C(=O)N[C@@H](Cc1ccccc1)C(=O)N[C@@H](CCCN=C(N)N)C(=O)N[C@@H](C(C)C)C(=O)N2 [KACFRVCYRGICYRRCR]
MIC [10]: 0.232 µM (≈ 0.499 µg/mL)
MIC (Acinetobacter baumannii): 0.232 µM (≈ 0.499 µg/mL)
MIC [11]: 0.232 µM (≈ 0.499 µg/mL)
MIC [12]: 3.71 µM (≈ 7.99 µg/mL)
MIC [13]: 0.232 µM (≈ 0.499 µg/mL)
MIC [3]: 0.116 µM (≈ 0.25 µg/mL)
MIC [14]: 0.232 µM (≈ 0.499 µg/mL)
MIC [15]: 0.464 µM (≈ 0.998 µg/mL)
MIC [16]: 0.464 µM (≈ 0.998 µg/mL)
MIC (Klebsiella pneumoniae): > 7.43 µM
MIC [17]: 0.232 µM (≈ 0.499 µg/mL)
MIC (Pseudomonas aeruginosa): 1.86 µM (≈ 3.99 µg/mL)
MIC [7]: 3.71 µM (≈ 7.99 µg/mL)

Second part, the compound after the results:

MIC [18]: ≥ 64 µM
MIC (Staphylococcus xylosus): ≥ 64 µM
SMILES: NCCCC[C@H](NC(=O)[C@H](CCCN=C(N)N)NC(=O)[C@H](CCCCN)NC(=O)CNC(=O)[C@H](CO)NC(=O)CNC(=O)[C@H](CCCCN)NC(=O)[C@H](CCCN=C(N)N)NC(=O)[C@@H](N)CCCCN)C(=O)O [KRKGSGKRK]

MIC [18]: ≥ 64 µM
MIC (Staphylococcus xylosus): ≥ 64 µM
SMILES: CC[C@H](C)[C@H](NC(=O)[C@H](CC(C)C)NC(=O)[C@H](CCCCN)NC(=O)[C@H](CCCN=C(N)N)NC(=O)[C@@H](N)CCCCN)C(=O)N[C@@H](CCCCN)C(=O)N[C@@H](CCCN=C(N)N)C(=O)N[C@@H](CCCCN)C(=O)O [KRKLIKRK]

MIC [18]: 8 µM (≈ 13.5 µg/mL)
MIC (Staphylococcus xylosus): 0.5 µM (≈ 0.847 µg/mL)
SMILES: CC[C@H](C)[C@H](NC(=O)[C@H](CC(C)C)NC(=O)[C@@H](NC(=O)[C@H](CC(C)C)NC(=O)[C@@H](NC(=O)[C@H](CCCCN)NC(=O)[C@H](CCCN=C(N)N)NC(=O)[C@H](CCCCN)NC(=O)[C@H](CCCN=C(N)N)NC(=O)[C@@H](N)CCCCN)[C@@H](C)CC)[C@@H](C)CC)C(=O)N[C@@H](CCCCN)C(=O)N[C@@H](CCCN=C(N)N)C(=O)N[C@@H](CCCCN)C(=O)O [KRKRKILILIKRK]

MIC [10]: > 7.77 µM
MIC (Acinetobacter baumannii): 7.77 µM (≈ 16 µg/mL)
MIC [11]: 7.77 µM (≈ 16 µg/mL)
MIC [12]: 7.77 µM (≈ 16 µg/mL)
MIC [13]: 7.77 µM (≈ 16 µg/mL)
MIC [3]: 3.89 µM (≈ 7.98 µg/mL)
MIC [14]: 7.77 µM (≈ 16 µg/mL)
MIC [15]: > 7.77 µM
MIC [16]: 7.77 µM (≈ 16 µg/mL)
MIC (Klebsiella pneumoniae): > 7.77 µM
MIC [17]: > 7.77 µM
MIC (Pseudomonas aeruginosa): > 7.77 µM
MIC [7]: > 7.77 µM
SMILES: CC(C)[C@@H]1NC(=O)[C@H](CCCN=C(N)N)NC(=O)[C@H](C)NC(=O)[C@@H](NC(=O)[C@H](Cc2c[nH]c3ccccc23)NC(=O)[C@@H](N)CCCCN)CSSC[C@@H](C(=O)N[C@@H](CCCN=C(N)N)C(=O)O)NC(=O)[C@H](CCCN=C(N)N)NC(=O)[C@H](CCCN=C(N)N)NC(=O)[C@H](Cc2ccc(O)cc2)NC(=O)[C@@H]2CSSC[C@H](NC1=O)C(=O)N[C@@H](C)C(=O)N[C@@H](CCCN=C(N)N)C(=O)NCC(=O)N[C@@H](C)C(=O)N2 [KWCARVCARGACYRRCR]

MIC [10]: 0.228 µM (≈ 0.499 µg/mL)
MIC (Acinetobacter baumannii): 0.228 µM (≈ 0.499 µg/mL)
MIC [11]: 0.114 µM (≈ 0.25 µg/mL)
MIC [12]: 3.65 µM (≈ 7.99 µg/mL)
MIC [13]: 0.228 µM (≈ 0.499 µg/mL)
MIC [3]: 0.057 µM (≈ 0.125 µg/mL)
MIC [14]: 0.228 µM (≈ 0.499 µg/mL)
MIC [15]: 0.228 µM (≈ 0.499 µg/mL)
MIC [16]: 0.228 µM (≈ 0.499 µg/mL)
MIC (Klebsiella pneumoniae): 7.3 µM (≈ 16 µg/mL)
MIC [17]: 0.228 µM (≈ 0.499 µg/mL)
MIC (Pseudomonas aeruginosa): 0.912 µM (≈ 2 µg/mL)
MIC [7]: 1.82 µM (≈ 3.99 µg/mL)
SMILES: CC[C@H](C)[C@@H]1NC(=O)CNC(=O)[C@H](CCCN=C(N)N)NC(=O)[C@H](Cc2ccc(O)cc2)NC(=O)[C@@H]2CSSC[C@H](NC1=O)C(=O)N[C@@H](Cc1ccc(O)cc1)C(=O)N[C@@H](CCCN=C(N)N)C(=O)N[C@@H](CCCN=C(N)N)C(=O)N[C@H](C(=O)N[C@@H](CCCN=C(N)N)C(=O)O)CSSC[C@H](NC(=O)[C@H](Cc1c[nH]c3ccccc13)NC(=O)[C@@H](N)CCCCN)C(=O)N[C@@H](C)C(=O)N[C@@H](CCCN=C(N)N)C(=O)N[C@@H](C(C)C)C(=O)N2 [KWCARVCYRGICYRRCR]

MIC [18]: ≥ 64 µM
MIC (Staphylococcus xylosus): ≥ 64 µM
SMILES: CC[C@H](C)[C@H](NC(=O)[C@H](CC(C)C)NC(=O)[C@@H](NC(=O)[C@@H](N)CC(C)C)[C@@H](C)CC)C(=O)N[C@@H](CCCCN)C(=O)N[C@@H](CCCN=C(N)N)C(=O)N[C@@H](CCCCN)C(=O)O [LILIKRK]
